Laboratory results taken from paper PMC8739840, “Structural and Molecular Insight into Piperazine and Piperidine Derivatives as Histamine H3 and Sigma-1 Receptor Antagonists with Promising Antinociceptive Properties” (ACS Chemical Neuroscience, 2021).
Where “and” joins values, the source holds several entries; their conditions need not be identical. Identical values can stand only once. Like-named read-outs stand apart in the source and are kept apart here.

What was measured:
[1] = quoted for comparison of basicity; no reference given; cited from earlier work
σ2 receptor = conditions: cited from earlier work
σ2R [2] = conditions: read-out: σ2R IC50 (binding); cited from earlier work
σ1 receptor = conditions: read-out: EC50, functional agonism of σ1 receptor-mediated calcium flux; cited from earlier work
female CD1 mice = test: loperamide-induced antinociception, paw pressure struggle response latency; format: in vivo; conditions: for functional character at σ1 receptor deduced in vivo: from potentiation of loperamide antinociception and reversal by PRE-084; for effect on loperamide-induced antinociception / effect alone on struggle response latency to mechanical stimulus: mice; for effect on loperamide-induced antinociception: injected paw; for effect alone on struggle response latency to mechanical stimulus: 450 g paw pressure, without loperamide
[3] = biological target: T1, human recombinant histamine H3R (Homo sapiens, UniProt Q9Y5N1); conditions: mean [CI 95%]; read-out: hH3R Ki; cited from earlier work
T1 construct: expressed in transfected cells
T1 sequence (Q9Y5N1 whole entry): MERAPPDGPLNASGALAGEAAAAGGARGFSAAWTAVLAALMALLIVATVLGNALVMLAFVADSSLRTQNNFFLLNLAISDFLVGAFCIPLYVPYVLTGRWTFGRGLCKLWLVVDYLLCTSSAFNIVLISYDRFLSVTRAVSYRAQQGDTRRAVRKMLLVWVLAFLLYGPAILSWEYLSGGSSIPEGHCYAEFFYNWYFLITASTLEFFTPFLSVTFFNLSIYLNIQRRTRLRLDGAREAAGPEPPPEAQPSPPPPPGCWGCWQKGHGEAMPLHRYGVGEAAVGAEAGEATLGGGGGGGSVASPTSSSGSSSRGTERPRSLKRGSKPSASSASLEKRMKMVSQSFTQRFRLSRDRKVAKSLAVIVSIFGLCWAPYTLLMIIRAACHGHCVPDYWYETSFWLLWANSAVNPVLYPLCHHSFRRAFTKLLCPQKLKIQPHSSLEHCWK

hH1R [4] = biological target: T2, hH1R (Homo sapiens, UniProt P35367); set-up: method as in PMID 33261900; conditions: cited from earlier work
T2 construct: SP (signal peptide) (N); expressed in transfected cells
T2 sequence (P35367 whole entry): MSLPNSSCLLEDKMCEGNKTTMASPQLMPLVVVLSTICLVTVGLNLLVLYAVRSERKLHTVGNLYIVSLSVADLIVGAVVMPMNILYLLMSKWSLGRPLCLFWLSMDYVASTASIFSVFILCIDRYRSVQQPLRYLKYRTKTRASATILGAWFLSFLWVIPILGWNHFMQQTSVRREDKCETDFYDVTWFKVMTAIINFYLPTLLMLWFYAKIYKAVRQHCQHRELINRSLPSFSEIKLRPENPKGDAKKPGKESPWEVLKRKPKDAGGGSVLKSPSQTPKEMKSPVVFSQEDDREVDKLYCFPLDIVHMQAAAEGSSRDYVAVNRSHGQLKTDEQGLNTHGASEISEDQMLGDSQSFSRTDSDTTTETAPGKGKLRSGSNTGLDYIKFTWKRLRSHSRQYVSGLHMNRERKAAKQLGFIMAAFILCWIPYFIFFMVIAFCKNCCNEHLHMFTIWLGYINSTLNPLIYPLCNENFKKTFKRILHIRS

human H3R = biological target: T3, human H3R (Homo sapiens, UniProt Q9Y5N1); set-up: method as in PMID 33261900; conditions: antagonist mode; read-out: hH3R Kb; cited from earlier work
T3 construct: expressed in transfected cells
T3 sequence (Q9Y5N1 whole entry): as the sequence (Q9Y5N1 whole entry) above

σ1R = σ1R (Cavia porcellus, UniProt Q60492); test: σ1R radioligand binding ([3H](+)-pentazocine, brain cortex membranes)
σ1R, sequence (Q60492 whole entry): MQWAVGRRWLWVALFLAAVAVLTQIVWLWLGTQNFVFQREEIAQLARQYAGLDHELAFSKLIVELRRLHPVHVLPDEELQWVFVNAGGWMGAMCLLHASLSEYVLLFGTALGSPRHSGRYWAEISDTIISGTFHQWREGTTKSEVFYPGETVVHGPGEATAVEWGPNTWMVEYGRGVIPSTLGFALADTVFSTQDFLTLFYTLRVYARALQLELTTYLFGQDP

σ2R [5] = biological target: T4, σ2R (Rattus norvegicus, UniProt Q5U3Y7); test: σ2R radioligand binding ([3H]DTG, liver membranes)
T4 sequence (Q5U3Y7 1-176): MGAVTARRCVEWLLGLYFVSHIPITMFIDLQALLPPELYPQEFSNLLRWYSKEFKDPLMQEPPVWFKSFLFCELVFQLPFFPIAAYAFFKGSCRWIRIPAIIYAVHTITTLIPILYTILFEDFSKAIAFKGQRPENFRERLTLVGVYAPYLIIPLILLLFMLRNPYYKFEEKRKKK

hH2R = biological target: T5, hH2R (Homo sapiens, UniProt P25021); test: hH2R radioligand binding ([3H]UR-DE257); conditions: HEK293T cells; oxalate form
T5 construct: SP (signal peptide) (N); expressed in transfected cells
T5 sequence (P25021 whole entry): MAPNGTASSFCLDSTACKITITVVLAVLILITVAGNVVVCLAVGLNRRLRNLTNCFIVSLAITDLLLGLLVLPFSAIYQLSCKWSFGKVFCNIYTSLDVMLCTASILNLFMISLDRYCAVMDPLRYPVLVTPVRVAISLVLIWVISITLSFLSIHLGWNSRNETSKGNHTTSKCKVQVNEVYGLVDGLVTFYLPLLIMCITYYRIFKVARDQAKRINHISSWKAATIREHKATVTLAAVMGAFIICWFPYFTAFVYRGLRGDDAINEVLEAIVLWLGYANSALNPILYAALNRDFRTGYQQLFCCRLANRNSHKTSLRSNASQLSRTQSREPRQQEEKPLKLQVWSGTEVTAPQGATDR
Description: (§1) Compounds (as oxalate salts) were tested in H3R in vitro binding studies, using methods described previously.[47],[48] […] Radioligand binding experiments at the H1R, H2R, and H4R were performed as previously described in Rosier et al.[70] and Bartole et al.[71] with HEK293T-SP-FLAG-hHxR (x = 1, 2, or 4) expressing the respective hHR. […] Data represent mean values ± CI from three independent experiments, each performed in triplicate. The normalized competition binding curves were then fitted with a four-parameter logistic fit yielding IC50 values using Prism 8.4.3 software (GraphPad, SanDiego, CA). The Ki values were estimated from the Cheng–Prusoff equation.[74]

hH1R [6] = biological target: T2, hH1R; test: hH1R radioligand binding ([3H]mepyramine); conditions: HEK293T cells; oxalate form
Description: as §1

hH4R = biological target: T6, hH4R (Homo sapiens, UniProt Q9H3N8); test: hH4R radioligand binding ([3H]UR-PI294); conditions: HEK293T cells; oxalate form
T6 construct: SP (signal peptide) (N); expressed in transfected cells
T6 sequence (Q9H3N8 whole entry): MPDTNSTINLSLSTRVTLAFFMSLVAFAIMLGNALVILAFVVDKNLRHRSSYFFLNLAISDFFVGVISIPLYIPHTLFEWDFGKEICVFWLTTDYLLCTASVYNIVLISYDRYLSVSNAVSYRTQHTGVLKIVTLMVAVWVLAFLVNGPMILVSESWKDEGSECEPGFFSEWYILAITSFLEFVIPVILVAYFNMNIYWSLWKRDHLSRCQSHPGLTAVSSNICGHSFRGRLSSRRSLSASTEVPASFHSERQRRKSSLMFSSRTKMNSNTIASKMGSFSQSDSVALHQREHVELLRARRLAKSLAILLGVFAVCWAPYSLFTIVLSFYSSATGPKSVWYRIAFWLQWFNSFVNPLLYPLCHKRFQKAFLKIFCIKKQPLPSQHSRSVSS
Description: as §1

[7] = exptl Ki σ1, Table 3, given as mean ± spread
[8] = σ1R Ki, mean [CI 95%], [3H](+)-pentazocine
[9] = exptl Ki σ2, Table 3, given as mean ± spread
[10] = σ2R Ki, mean [CI 95%], [3H]DTG with (+)-pentazocine mask

CN(C)c1ccncc1 [DMAP]
pKa [1]: 9.2

Clc1ccc(CCCOCCCN2CCCCC2)cc1 [PIT, Pitolisant]
agonist activity in σ2 receptor-mediated calcium flux functional assay (σ2 receptor): did not elicit agonist activity | IC50 (σ2 receptor; read-out: IC50, decrease of haloperidol-induced calcium release (antagonist)): 10000 nM | IC50 (σ2R [2]): 8.55 nM | EC50 (σ1 receptor): 402 nM

O=C(c1ccc(OCCCN2CCC(c3ccncc3)CC2)cc1)C1CC1 [Compound 5]
functional character at σ1 receptor deduced in vivo (female CD1 mice): σ1 receptor antagonists | effect on loperamide-induced antinociception (female CD1 mice; ipl 100 μg + loperamide 4 mg/kg sc): increased the antinociceptive effect of loperamide at the injected paw | effect alone on struggle response latency to mechanical stimulus (female CD1 mice; ipl 100 μg): did not have any effect per se | Ki [3]: 8 nM | Ki (hH1R [4]): > 10000 nM | Kb (human H3R): 18.8 nM | Ki (σ1R; [7]): 3.64 ± 0.74 nM | Ki (σ1R; [8]): 3.64 nM | Ki (σ2R [5]; [9]): 22.4 ± 4.13 nM | Ki (σ2R [5]; [10]): 22 nM and 22.4 nM

c1ccc(-c2ccc(OCCCN3CCCCC3)cc2)cc1 [Compound 11]
functional character at σ1 receptor deduced in vivo (female CD1 mice): σ1 receptor antagonists | effect on loperamide-induced antinociception (female CD1 mice; ipl 50 μg + loperamide 4 mg/kg sc): increased the antinociceptive effect of loperamide at the injected paw | effect alone on struggle response latency to mechanical stimulus (female CD1 mice; ipl 50 μg): did not have any effect per se | Ki (hH2R): > 100000 nM | Ki (hH1R [6]): > 10000 nM | Ki (hH4R): > 10000 nM | Ki (σ1R; [7]): 4.41 ± 0.58 nM | Ki (σ1R; [8]): 4.41 nM | Ki (σ2R [5]; [9]): 67.9 ± 7.51 nM | Ki (σ2R [5]; [10]): 68 nM and 67.9 nM
